The record followed here is patent US12653801B2, “Digestive lipase activity inhibitor, blood triglyceride concentration increase inhibitor, and fat absorption inhibitor” (Pharma Foods International Co., Ltd., priority 2020, dated 2026).

The test system of assay [1] is digestive lipase solution (mixture of pancreatic lipase, intestinal lipase, and the like) from rat intestinal acetone powder. Briefly: Test 1: digestive lipase activity inhibition test with linoleic acid and oleic acid (Lipase Kit S, absorbance 412 nm). It is filed as biochemical. Conditions: DMSO solution. As for the experimental part:
30 mL of 0.1 M citrate buffer solution (pH 6.0) was added to 30 mg of rat intestinal acetone powder (manufactured by SIGMA Corporation), shaken in ice for 1 hour, and centrifuged at 4° C. and 10,000 rpm for 45 minutes, to obtain a digestive lipase solution. The digestive lipase solution is a mixture of pancreatic lipase, intestinal lipase, and the like. […] After that, 25 μL of the substrate solution was added, and the reaction was carried out at 30° C. for 30 minutes in the dark. After that, 700 μL of a reaction stop solution was added, and the absorbance at 412 nm was measured for this solution. As the coloring solution, the substrate solution, the esterase inhibitor, and the reaction stop solution, those attached to Lipase Kit S (manufactured by SB Bioscience Co., Ltd.) were used. A control was prepared in a new 1.5 mL capacity tube for the purpose of measuring the absorbance of the above samples and reagents themselves. […] After that, 700 μL of reaction stop solution and 25 μL of substrate solution were added, and the absorbance at 412 nm was measured. In addition, blank a was prepared in the same manner as in the activity evaluation except that only DMSO was added instead of the DMSO solution of each sample, and blank b was prepared in the same manner as the control by adding only DMSO (control blank). Absorbance at 412 nm was also measured for blank a and blank b. Digestive lipase activity when each sample was added was calculated by the following equation. Digestive lipase activity (%)=100×(absorbance of each sample−absorbance of control)/(absorbance of blank a−absorbance of blank b) (Results)

For assay [2] the test system is unchanged. As to the kind of experiment: Test 2: digestive lipase activity inhibition test with mixture of linoleic acid and oleic acid. Conditions: 0.009 mg/mL linoleic acid aqueous solution, final concentration. It is filed as biochemical.
Method: A control was prepared in a new 1.5 mL capacity tube for the purpose of measuring the absorbance of the above samples and reagents themselves. […] After that, 700 μL of reaction stop solution and 25 μL of substrate solution were added, and the absorbance at 412 nm was measured. […] Absorbance at 412 nm was also measured for blank a and blank b.
First, the digestive lipase activity inhibition rate of each sample was calculated according to the equation shown below.

Each structure is given as a SMILES string.

Turning to `c1cc2c(cc1[C@H]1OC[C@H]3[C@@H]1CO[C@@H]3c1ccc3c(c1)OCO3)OCO2` [sesamin, reference compound], the Digestive lipase activity in assay [1] (0.044 mg/mL final concentration, for comparison) was 110.9%.

For `CCCCC/C=C\C/C=C\CCCCCCCC(=O)O` [linoleic acid], the Digestive lipase activity in assay [1] (0.19 mg/mL final concentration, 30° C. 30 minutes) is reported as 8.9%. Moreover, the “Digestive lipase activity inhibition rate” value in assay [2] was 9.6%.

In the case of `CCCCCCCC/C=C\CCCCCCCC(=O)O` [oleic acid], the Digestive lipase activity in assay [1] (0.16 mg/mL final concentration, 30° C. 30 minutes) is listed as 7.1%.
